Measured values as given in ChEMBL document CHEMBL4811302, “Solid-phase synthesis of curcumin mimics and their anticancer activity against human pancreatic, prostate, and colorectal cancer cell lines” (Bioorg Med Chem, 2021).
Active and inactive are the calls of the source. The rule behind the calls is not given here.

Assays:
[1] = test system: PANC-1; assay: Antiproliferative activity against human PANC-1 cells assessed as reduction in cell growth at 100 uM incubated for 72 hrs by trypan blue assay relative to control; format: functional
[2] = test system: PC-3; assay: Antiproliferative activity against human PC-3 cells assessed as reduction in cell growth at 100 uM incubated for 72 hrs by trypan blue assay relative to control; format: functional
[3] = test system: SW480; assay: Antiproliferative activity against human SW480 cells assessed as reduction in cell growth at 100 uM incubated for 72 hrs by trypan blue assay relative to control; format: functional
[4] = test system: PANC-1; assay: Antiproliferative activity against human PANC-1 cells assessed as cell death at 100 uM incubated for 72 hrs by trypan blue assay relative to control; format: functional, cell-based
[5] = Stability of compound in simulated gastric fluid assessed as drug degradation at pH 1.2 at 1 mM measured after 48 hrs by HPLC analysis; format: ADME; details: read-out: Drug degradation
[6] = Stability of compound in alkaline phosphatase by HPLC analysis; format: ADME
[7] = test system: PC-3; assay: Antiproliferative activity against human PC-3 cells assessed as cell death at 100 uM incubated for 72 hrs by trypan blue assay (reference value: 3%); format: functional
[8] = Stability of compound in simulated intestinal fluid assessed as parent compound remaining at pH 6.8 at 1 mM measured after 48 hrs by HPLC analysis; format: ADME; details: simulated gi fluid, pH 6.8, 48 h, 1000 µM
[9] = Stability of compound in human serum assessed as parent compound remaining measured upto 96 hrs by HPLC analysis; format: ADME, cell-free
[10] = test system: SW480; assay: Antiproliferative activity against human SW480 cells assessed as cell death at 100 uM incubated for 72 hrs by trypan blue assay relative to control; format: functional, cell-based

For `COc1cc(CCOP(=O)([O-])OCCc2ccc(O)cc2)ccc1O.[Na+]`, which inhibition [1] is on record?
Its inhibition is “inactive”.

And the inhibition at 100 µM [2]?
Its inhibition at 100 µM is 28%.

What about the inhibition [3] of the same molecule?
The inhibition was “Active”.

What about the Activity [4] of the same molecule?
Its Activity is “Active”.

What about the degraded at 48 h, 1000 µM [5] of the same molecule?
Its degraded at 48 h, 1000 µM is less than 5%.

And the Stabilty [6]?
The Stabilty was “Stable”.

And the Activity [7]?
The Activity was 23%.

And the Stabilty [8]?
Its Stabilty is “Stable”.

What about the Stabilty [9] of the same molecule?
The Stabilty was “Stable”.

For `O=P([O-])(OCCc1ccc(O)c(O)c1)OCCc1ccc(O)c(O)c1.[Na+]`, which Activity [10] is on record?
Its Activity is “Active”.

And the inhibition [1]?
The inhibition was “inactive”.

And the inhibition [2]?
Its inhibition is “Active”.

What about the inhibition at 100 µM [3] of the same molecule?
The inhibition at 100 µM was 25%.

What about the Activity [4] of the same molecule?
The Activity was “Active”.

What about the degraded at 48 h, 1000 µM [5] of the same molecule?
Its degraded at 48 h, 1000 µM is less than 5%.

What about the Stabilty [6] of the same molecule?
Its Stabilty is “Stable”.

And the Activity [7]?
Its Activity is “Active”.

And the Stabilty [8]?
Its Stabilty is “Stable”.

What about the Stabilty [9] of the same molecule?
The Stabilty was “Stable”.

Which inhibition at 100 µM [1] does the source give for `OCCc1ccc(O)c(O)c1` [HYDROXYTYROSOL] here?
The inhibition at 100 µM was 15%.

And the inhibition at 100 µM [2]?
The inhibition at 100 µM was 33%.

What about the inhibition at 100 µM [3] of the same molecule?
The inhibition at 100 µM was 38%.

What about the Activity [4] of the same molecule?
The Activity was “Active”.

Which inhibition [1] does the source give for `O=P([O-])(OCCc1ccc(O)cc1)OCCc1ccc(O)c(O)c1.[Na+]` here?
Its inhibition is “inactive”.

What about the inhibition [2] of the same molecule?
The inhibition was “Active”.

And the inhibition [3]?
The inhibition was “Active”.

And the Activity [4]?
Its Activity is “Active”.

And the degraded at 48 h, 1000 µM [5]?
The degraded at 48 h, 1000 µM was less than 5%.

And the Stabilty [6]?
The Stabilty was “Stable”.

What about the Activity [7] of the same molecule?
Its Activity is “Active”.

And the Stabilty [8]?
Its Stabilty is “Stable”.

And the Stabilty [9]?
Its Stabilty is “Stable”.

Which results are given for `OCCc1ccc(O)cc1` [TYROSOL]?
inhibition [1]: inactive; inhibition at 100 µM [2]: 13%; inhibition at 100 µM [3]: 12%; Activity [4]: Active; Activity [7]: 7%

Which inhibition [1] does the source give for `COc1cc(CCOP(=O)([O-])OCCc2ccc(O)c(OC)c2)ccc1O.[Na+]` here?
Its inhibition is “inactive”.

What about the inhibition [2] of the same molecule?
Its inhibition is “Active”.

What about the inhibition [3] of the same molecule?
Its inhibition is “Active”.

And the Activity [4]?
The Activity was “Active”.

What about the degraded at 48 h, 1000 µM [5] of the same molecule?
Its degraded at 48 h, 1000 µM is less than 5%.

And the Stabilty [6]?
The Stabilty was “Stable”.

And the Activity [7]?
Its Activity is “Active”.

What about the Stabilty [8] of the same molecule?
Its Stabilty is “Stable”.

What about the Stabilty [9] of the same molecule?
The Stabilty was “Stable”.

With `O=P([O-])(OCCc1ccc(O)cc1)OCCc1ccc(O)cc1.[Na+]` as the molecule, how does the inhibition [1] read?
The inhibition was “inactive”.

And the inhibition [2]?
Its inhibition is “Active”.

What about the inhibition [3] of the same molecule?
Its inhibition is “Active”.

What about the Activity [4] of the same molecule?
The Activity was “Active”.

And the degraded at 48 h, 1000 µM [5]?
The degraded at 48 h, 1000 µM was less than 5%.

What about the Stabilty [6] of the same molecule?
Its Stabilty is “Stable”.

What about the Activity [7] of the same molecule?
The Activity was “Active”.

And the Stabilty [8]?
The Stabilty was “Stable”.

What about the Stabilty [9] of the same molecule?
Its Stabilty is “Stable”.

For `COc1cc(CCOP(=O)([O-])OCCc2ccc(O)c(O)c2)ccc1O.[Na+]`, which Activity [10] is on record?
The Activity was “Active”.

What about the inhibition [1] of the same molecule?
The inhibition was “inactive”.

And the inhibition [2]?
Its inhibition is “Active”.

And the inhibition at 100 µM [3]?
The inhibition at 100 µM was 15%.

And the Activity [4]?
Its Activity is “Active”.

And the degraded at 48 h, 1000 µM [5]?
The degraded at 48 h, 1000 µM was less than 5%.

And the Stabilty [6]?
Its Stabilty is “Stable”.

And the Activity [7]?
The Activity was “Active”.

And the Stabilty [8]?
The Stabilty was “Stable”.

What about the Stabilty [9] of the same molecule?
The Stabilty was “Stable”.

With `COc1cc(CCO)ccc1O` as the molecule, how does the inhibition [1] read?
The inhibition was “inactive”.

And the inhibition [2]?
The inhibition was “inactive”.

And the inhibition at 100 µM [3]?
Its inhibition at 100 µM is 12%.

And the Activity [4]?
The Activity was “Active”.

What about the Activity [7] of the same molecule?
The Activity was “Active”.
